From ChEMBL document CHEMBL2016549, “Bioconversion of silybin to phase I and II microbial metabolites with retained antioxidant activity” (Bioorg Med Chem, 2012) come the findings set out here.

By IC50 is commonly meant the concentration that gives 50% inhibition.

In the first assay the test system is Radical scavenging activity. The assay is described as follows: Antioxidant activity assessed as DPPH radical scavenging activity by densitometric analysis relative to ascorbic acid. In kind it is functional. (In general: DPPH is a stable violet radical that fades when it is reduced.)
Take `COc1cc(C2Oc3cc([C@H]4Oc5c(O)c(O)cc(O)c5C(=O)[C@@H]4O)ccc3OC2CO)ccc1O` (mixture of isomers): the Activity stood at 25%.

The next assay deals with Radical scavenging activity. The experiment in a line: Antioxidant activity assessed as DPPH radical scavenging activity by densitometric analysis. In kind it is functional.
For `COc1cc(C2Oc3cc(-c4oc5cc(OS(=O)(=O)O)cc(O)c5c(=O)c4O)ccc3OC2CO)ccc1O` (mixture of isomers), the IC50 was determined as 99.7 µM.

As for `COc1cc(C2Oc3cc([C@H]4Oc5cc(OS(=O)(=O)O)cc(O)c5C(=O)[C@@H]4O)ccc3OC2CO)ccc1O` (mixture of isomers), the IC50 was found to be 831 µM.

On to `COc1cc(C2Oc3cc([C@H]4Oc5cc(O)cc(O)c5C(=O)[C@@H]4O)ccc3OC2CO)ccc1O` (mixture of isomers) [SILIBININ], for which the IC50 is 284 µM.

For `COc1cc(C2Oc3cc([C@H]4Oc5c(O)c(O)cc(O)c5C(=O)[C@@H]4O)ccc3OC2CO)ccc1O` (mixture of isomers), the IC50 came to 30.3 µM.

For `O=C1O[C@H]([C@@H](O)CO)C(O)=C1O` [ASCORBIC ACID], the IC50 came out at 7.7 µM.
